molecular target: Neuropeptides B/W receptor type 1 (Homo sapiens) (UniProt P48145); experiment: antagonism of NPBW1 receptor GPR7 – cell-based, fluorescence, set 4, dose response (AID 588564); conditions: GPR7-expressing cells, fluorescence antagonist assay; run 1

IC50, active:
COc1ccc(Oc2c(Cl)cnn(CCc3cccc4ccccc34)c2=O)cc1 4250 nM
COc1ccc(Oc2c(C)c(C)nn(Cc3ccccc3C)c2=O)cc1 5660 nM
COc1ccc(Oc2c(Cl)cnn(Cc3ccc(-c4ccccc4)cc3)c2=O)cc1 9420 nM
COc1ccc(Oc2c(Cl)cnn(C(C)c3cccc4ccccc34)c2=O)cc1 (stereo not drawn) 1920 nM
C=Cc1ccc(Cn2ncc(Cl)c(Oc3ccc(OC)cc3)c2=O)cc1 2040 nM
O=C(C1CCCN1Cc1ccc(Cl)c(Cl)c1)N1CCN(c2ccc([N+](=O)[O-])cc2)CC1 (stereo not drawn) 2340 nM
Cc1cccc(Cn2ncc(Cl)c(Oc3ccc(CO)cc3)c2=O)c1 4700 nM
COc1ccc(Oc2c(C#N)cnn(Cc3ccccc3C)c2=O)cc1 8130 nM
COc1cccc(Oc2c(Cl)cnn(-c3cc(C)cc(C)c3)c2=O)c1 4640 nM
COc1ccc(Oc2c(Cl)c(C3=CCCCC3)nn(Cc3ccccc3C)c2=O)cc1 2830 nM
COc1ccc(Oc2c(Cl)c(-c3ccccc3C)nn(Cc3ccccc3C)c2=O)cc1 2970 nM
COc1ccc(Oc2c(Cl)cnn(C(c3ccccc3)c3ccccc3C)c2=O)cc1 (stereo not drawn) 1630 nM
Cc1ccccc1Cn1ncc(Cl)c(Oc2ccc(CO)cc2)c1=O 725 nM

— PubChem BioAssay AID588564 (The Scripps Research Institute Molecular Screening Center, 2011)
